Measurements as given in article PMC8001788, “Decursin Alleviates Mechanical Allodynia in a Paclitaxel-Induced Neuropathic Pain Mouse Model” (Cells, 2021).

Biological target: transient receptor potential vanilloid 1 (TRPV1) (Homo sapiens, UniProt Q8NER1)
Test: Fura-2 calcium imaging of capsaicin-induced Ca2+ in human TRPV1 stable HEK293 cells
Format: cell-based

transient receptor potential vanilloid 1 (TRPV1), sequence (Q8NER1 whole entry): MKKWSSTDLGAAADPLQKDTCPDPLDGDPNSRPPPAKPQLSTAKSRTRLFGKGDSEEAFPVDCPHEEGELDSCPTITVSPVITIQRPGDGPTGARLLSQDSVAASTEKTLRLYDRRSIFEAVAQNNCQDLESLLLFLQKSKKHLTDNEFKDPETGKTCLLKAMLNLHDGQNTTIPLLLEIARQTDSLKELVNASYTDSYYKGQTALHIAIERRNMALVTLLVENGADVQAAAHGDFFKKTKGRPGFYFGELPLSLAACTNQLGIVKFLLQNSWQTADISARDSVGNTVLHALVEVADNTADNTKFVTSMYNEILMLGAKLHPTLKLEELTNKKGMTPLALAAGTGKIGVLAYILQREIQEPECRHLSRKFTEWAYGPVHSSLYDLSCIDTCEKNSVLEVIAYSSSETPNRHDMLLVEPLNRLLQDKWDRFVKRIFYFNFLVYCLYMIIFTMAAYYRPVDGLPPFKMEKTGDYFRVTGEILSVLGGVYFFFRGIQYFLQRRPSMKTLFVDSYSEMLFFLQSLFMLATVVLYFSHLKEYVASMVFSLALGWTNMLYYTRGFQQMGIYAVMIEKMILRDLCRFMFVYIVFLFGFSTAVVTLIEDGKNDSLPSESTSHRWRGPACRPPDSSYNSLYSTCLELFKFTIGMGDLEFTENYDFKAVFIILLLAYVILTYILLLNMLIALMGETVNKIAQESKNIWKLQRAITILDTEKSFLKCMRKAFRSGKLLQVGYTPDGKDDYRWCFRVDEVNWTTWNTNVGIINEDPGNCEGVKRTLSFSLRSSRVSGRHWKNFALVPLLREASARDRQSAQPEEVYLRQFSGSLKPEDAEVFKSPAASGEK

Work on `CC(C)=CC(=O)O[C@H]1Cc2cc3ccc(=O)oc3cc2OC1(C)C` [decursin] yielded an IC50 of 690 ± 105 nM.
